Assays:
[1] = system: LPS-induced lethality in mice; conditions: cited from earlier work
[2] = molecular target: T1, human recombinant MMP-12 catalytic domain (Homo sapiens, UniProt P39900); test: Detailed dose-response with Substrate XIII (AnaSpec) quenched fluorescent substrate; assay type: biochemical
T1 construct: human recombinant MMP-3 (72006, AnaSpec) and MMP-12 catalytic domains (55525-1, AnaSpec); purchased AnaSpec 55525-1
Experimental: […] Briefly, the compound was dissolved in dimethyl sulfoxide (DMSO) and further diluted in assay buffer (50 mM HEPES, 10 mM CaCl2, 0.05% Brij-35, and pH 7.5). […] In each experiment we included a blank, a substrate control (substrate only in assay buffer), a positive control (NNGH, 1.3 μM final concentration), and negative control (only substrate and inhibitor in assay buffer). The latter was implemented to exclude possible interference of the inhibitor with the substrate. […] The IC50 values were determined in a single experimental run in duplicate. Data analysis and curve fitting for determination of IC50 values were performed in GraphPad Prism 6.

[3] = molecular target: T1, human recombinant MMP-12 catalytic domain; test: Recombinant MMP fluorescent assay kit (OmniMMP substrate), initial screen; assay type: biochemical; conditions: pH 7.5, 1 h incubation at 37°C, OmniMMP substrate 4 μM, read-out: apparent IC50 MMP-12 (initial screen)
Experimental: (§1) The specificity of the synthesized inhibitor was determined in vitro against a panel of ten human recombinant MMP catalytic domains using a fluorescent assay kit (BML-AK016, Enzo Life Sciences). Briefly, the compound was dissolved in dimethyl sulfoxide (DMSO) and further diluted in assay buffer (50 mM HEPES, 10 mM CaCl2, 0.05% Brij-35, and pH 7.5). Ten MMPs (MMP-1, MMP-2, MMP-3, MMP-7, MMP-8, MMP-9, MMP-10, MMP-12, MMP-13, and MMP-14) were individually incubated with varying concentrations of inhibitor for one hour at 37°C, followed by addition of a quenched fluorogenic substrate (OmniMMP fluorogenic substrate Mca-Pro-Leu-Gly-Leu-Dpa-Ala-Arg-NH2 [Mca is (7-methoxycoumarin-4-yl)-acetyl; Dpa is N-3-(2,4-dinitrophenyl)-L-α-β-diaminopropionyl], 4 μM in assay). […] After each fluorescent measurement the well plates were shaken for 2 sec to agitate the reagents. In each experiment we included a blank, a substrate control (substrate only in assay buffer), a positive control (NNGH, 1.3 μM final concentration), and negative control (only substrate and inhibitor in assay buffer). The latter was implemented to exclude possible interference of the inhibitor with the substrate. […] The IC50 values were determined in a single experimental run in duplicate. Data analysis and curve fitting for determination of IC50 values were performed in GraphPad Prism 6.

[4] = system: LPS-induced lethality in C57BL/6 mice; test: Endotoxemia model: survival after lethal LPS challenge; assay type: in vivo, mouse; conditions: 100 μg i.p. 15 min before and 3 and 6 h after LPS 200 μg/20 g i.p. (LD100), log-rank test
Excerpt: Female C57BL/6J (8–10 weeks old) mice were purchased from Janvier Labs (France) and MMP-12 knockout mice (MMP-12^−/−) (in C57BL/6J background together with littermate MMP-12^+/+ controls) were obtained from Dr. Steven Shapiro (University of Pittsburgh, USA). C57BL/6 and MMP-12^−/− mice were housed with 4–6 mice/cage with ad libitum access to food and water and with a 14-hour light/10-hour dark cycle in a specific pathogen-free animal facility and conventional facility, respectively. All experiments were approved by the Ethics Committee of the Faculty of Sciences of Ghent University.
Endotoxemia was induced by intraperitoneal (i.p.) injection of lipopolysaccharide (LPS) from Salmonella enterica serotype abortus equi (Sigma) dissolved in PBS. […] Control animals received i.p. injections of PBS. Rectal temperature was measured periodically after challenge. 100 μg MMP-12i (1 μg/μL) or vehicle control was administered intraperitoneally at different time points: 15 min before and 3 and 6 hours after LPS administration.

[5] = molecular target: T2, human recombinant MMP-1 catalytic domain (Homo sapiens, UniProt P03956); test: Recombinant MMP fluorescent assay kit (OmniMMP substrate); assay type: biochemical
T2 construct: a panel of ten human recombinant MMP catalytic domains; purchased Enzo Life Sciences BML-AK016
T2 sequence (P03956 100-269 limits assumed): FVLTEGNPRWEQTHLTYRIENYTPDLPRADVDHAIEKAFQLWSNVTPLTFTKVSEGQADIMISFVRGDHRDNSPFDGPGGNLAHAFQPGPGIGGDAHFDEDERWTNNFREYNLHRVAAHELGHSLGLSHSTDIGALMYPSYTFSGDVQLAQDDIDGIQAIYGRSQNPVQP
Experimental: as §1

[6] = molecular target: T3, human recombinant MMP-14 catalytic domain (Homo sapiens, UniProt P50281); test: as above; assay type: biochemical
T3 construct: a panel of ten human recombinant MMP catalytic domains; purchased Enzo Life Sciences BML-AK016
Experimental: as §1

[7] = molecular target: T4, human recombinant MMP-13 catalytic domain (Homo sapiens, UniProt P45452); test: as above; assay type: biochemical
T4 construct: a panel of ten human recombinant MMP catalytic domains; purchased Enzo Life Sciences BML-AK016
Experimental: as §1

[8] = molecular target: T5, human recombinant MMP-2 catalytic domain (Homo sapiens, UniProt P08253); test: as above; assay type: biochemical
T5 construct: a panel of ten human recombinant MMP catalytic domains; purchased Enzo Life Sciences BML-AK016
Experimental: as §1

[9] = molecular target: T6, human recombinant MMP-3 catalytic domain (Homo sapiens, UniProt P08254); test: as above; assay type: biochemical
T6 construct: a panel of ten human recombinant MMP catalytic domains; purchased Enzo Life Sciences BML-AK016
Experimental: as §1

[10] = molecular target: T7, human recombinant MMP-7 catalytic domain (Homo sapiens, UniProt P09237); test: as above; assay type: biochemical
T7 construct: a panel of ten human recombinant MMP catalytic domains; purchased Enzo Life Sciences BML-AK016
T7 sequence (P09237 95-267): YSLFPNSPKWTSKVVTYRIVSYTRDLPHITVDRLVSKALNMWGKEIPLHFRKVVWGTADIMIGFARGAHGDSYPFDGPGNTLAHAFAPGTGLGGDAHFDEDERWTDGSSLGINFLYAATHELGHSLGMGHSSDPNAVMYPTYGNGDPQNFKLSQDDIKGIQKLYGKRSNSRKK
Experimental: as §1

[11] = molecular target: T8, human recombinant MMP-9 catalytic domain (Homo sapiens, UniProt P14780); test: as above; assay type: biochemical
T8 construct: a panel of ten human recombinant MMP catalytic domains; purchased Enzo Life Sciences BML-AK016
Experimental: as §1

[12] = molecular target: T9, human recombinant MMP-10 catalytic domain (Homo sapiens, UniProt P09238); test: as above; assay type: biochemical
T9 construct: a panel of ten human recombinant MMP catalytic domains; purchased Enzo Life Sciences BML-AK016
Experimental: as §1

[13] = molecular target: T10, human recombinant MMP-8 catalytic domain (Homo sapiens, UniProt P22894); test: as above; assay type: biochemical
T10 construct: a panel of ten human recombinant MMP catalytic domains; purchased Enzo Life Sciences BML-AK016
Experimental: as §1

[14] = system: primary mouse choroid plexus epithelial cells; test: Blood-CSF barrier permeability in vitro (ECIS impedance); assay type: cell-based; conditions: 1 μM inhibitor 1 hour before LPS 1000 ng/mL; n = 3
Experimental: Culturing primary mouse choroid plexus epithelial cells was done as described. In brief, 2–9-day-old pups were decapitated and brains were isolated. Choroid plexuses from all four ventricles were isolated under a dissection microscope. The cells were dissociated enzymatically by incubating them for 5–7 min with pronase (isolated from Streptomyces griseus, Sigma). Digestion was stopped by adding an excess of HBSS buffer and the cells were washed twice with HBSS. The cell pellet was resuspended in DMEM-F12 culture medium and plated on laminin-coated plates. Two days later, they were shifted to DMEM-F12 containing cytosine arabinoside (Ara-C) to eliminate growth of fibroblasts. Cultures were maintained at 37°C in 5% CO2. Purity of the cultures was confirmed by checking the levels of transthyretin (TTR) both by qPCR and by immunostaining. Primary CPE cells retained the epithelial and the barrier properties which were confirmed by staining for E-cadherin, ZO-1, and occludin. The electric cell-substrate impedance (ECIS) technique (Applied Biophysics) was used to monitor barrier properties as described before. 250.000 cells per well were seeded onto laminin-coated 8W10E array plates (Applied Biophysics) and the array holder was placed in a standard cell culture incubator (37°C, 100% humidity, and 5% CO2). Array plates were connected to the instrument and multifrequency measurements were started. […]

T1 sequence (P39900 106-263 limits assumed): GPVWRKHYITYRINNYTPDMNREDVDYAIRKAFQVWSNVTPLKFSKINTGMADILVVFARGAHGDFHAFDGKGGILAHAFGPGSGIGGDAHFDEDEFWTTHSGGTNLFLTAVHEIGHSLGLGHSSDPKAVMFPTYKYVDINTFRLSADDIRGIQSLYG
T8 sequence (P14780 107-444 limits assumed): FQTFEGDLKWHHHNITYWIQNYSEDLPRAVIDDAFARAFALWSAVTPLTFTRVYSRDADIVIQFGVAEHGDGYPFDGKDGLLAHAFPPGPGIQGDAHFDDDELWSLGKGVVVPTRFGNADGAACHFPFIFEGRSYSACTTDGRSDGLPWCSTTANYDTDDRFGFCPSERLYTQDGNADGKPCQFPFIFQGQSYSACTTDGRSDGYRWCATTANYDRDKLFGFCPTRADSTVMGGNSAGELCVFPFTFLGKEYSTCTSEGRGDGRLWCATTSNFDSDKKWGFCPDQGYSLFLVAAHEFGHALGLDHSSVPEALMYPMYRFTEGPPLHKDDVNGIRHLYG
T9 sequence (P09238 99-263 limits assumed): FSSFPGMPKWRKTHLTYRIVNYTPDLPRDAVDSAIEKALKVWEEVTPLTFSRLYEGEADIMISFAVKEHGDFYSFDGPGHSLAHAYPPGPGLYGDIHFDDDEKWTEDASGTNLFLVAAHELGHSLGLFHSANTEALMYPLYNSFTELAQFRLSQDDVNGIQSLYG
T6 sequence (P08254 100-272 limits assumed): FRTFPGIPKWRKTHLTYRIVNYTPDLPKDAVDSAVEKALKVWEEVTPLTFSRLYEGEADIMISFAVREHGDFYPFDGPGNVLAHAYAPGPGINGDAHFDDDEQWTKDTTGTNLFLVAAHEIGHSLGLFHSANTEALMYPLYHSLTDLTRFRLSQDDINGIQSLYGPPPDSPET
T5 sequence (P08253 110-446 limits assumed): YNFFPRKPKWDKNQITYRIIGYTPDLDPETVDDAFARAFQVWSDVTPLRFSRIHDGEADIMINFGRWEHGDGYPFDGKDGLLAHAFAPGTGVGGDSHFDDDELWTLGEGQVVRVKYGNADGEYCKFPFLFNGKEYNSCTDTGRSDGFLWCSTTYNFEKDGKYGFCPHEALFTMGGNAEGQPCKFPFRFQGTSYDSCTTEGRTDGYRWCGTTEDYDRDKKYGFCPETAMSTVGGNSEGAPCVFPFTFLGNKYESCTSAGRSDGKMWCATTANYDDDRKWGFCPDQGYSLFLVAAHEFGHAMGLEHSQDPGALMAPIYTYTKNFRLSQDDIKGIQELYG
T10 sequence (P22894 100-262 limits assumed): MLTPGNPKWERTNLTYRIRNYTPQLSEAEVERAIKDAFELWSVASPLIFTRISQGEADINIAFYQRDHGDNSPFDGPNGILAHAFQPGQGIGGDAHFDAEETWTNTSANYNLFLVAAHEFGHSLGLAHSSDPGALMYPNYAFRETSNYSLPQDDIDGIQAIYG

| Compound | protection from LPS-induced lethality [1] | IC50 ([2]; Figure 1(c) fitted dose-response curve, read-out: log(IC50) MMP-12 (converted)) | inhibitory plateau at higher inhibitor concentrations, MMP-12 ([2]; Substrate XIII (AnaSpec), nonlinear regression) | IC50 ([2]; Substrate XIII (AnaSpec), nonlinear regression of dose-response curve, read-out: relative IC50 MMP-12) | IC50 [3] | LPS-induced lethality (survival) vs vehicle [4] | IC50 [5] | IC50 [6] | IC50 [7] | IC50 [8] | IC50 [9] | IC50 [10] | IC50 [11] | IC50 [12] | IC50 [13] | LPS-induced drop in normalized resistance (ECIS, low frequency) [14] |
| --- | --- | --- | --- | --- | --- | --- | --- | --- | --- | --- | --- | --- | --- | --- | --- | --- |
| CNC(=O)[C@H](Cc1ccccc1)NC(=O)[C@H](CC(C)C)[C@H](CSc1cccs1)C(=O)NO [BB-94] | protected from LPS-induced lethality |  |  |  |  |  |  |  |  |  |  |  |  |  |  |  |
| Cc1cc(=O)c(O)c(C(=O)NCc2ccc(-c3ccc(-c4ccccc4)cc3)cc2)o1 [Compound 9, N-([1,1′:4′,1′′-Terphenyl]-4-ylmethyl)-3-hydroxy-6-methyl-4-oxo-4H-pyran-2-carboxamide] |  | 0.177 µM | 72 ± 1.75% | 0.177 µM | < 2 µM | significant reduction in LPS-induced lethality | > 50 µM | 2 to 50 µM | > 50 µM | 2 to 50 µM | > 50 µM | > 50 µM | > 50 µM | > 50 µM | 2 to 50 µM | significantly reduced |

Reference: paper PMC4550771, “Synthesis and Validation of a Hydroxypyrone-Based, Potent, and Specific Matrix Metalloproteinase-12 Inhibitor with Anti-Inflammatory Activity In Vitro and In Vivo” (Mediators of Inflammation, 2015)
